In patent US9555039B2, “Piperidine derivatives and compositions for the inhibition of nicotinamide phosphoribosyltransferase (NAMPT)” (Forma TM, LLC., priority 2011, dated 2017):
Where two headings read alike, the source gives them in different places.

Assays:
[1] = biological target: T1, Recombinant His-tagged NAMPT (Homo sapiens, UniProt P43490); experiment: Biochemical inhibition assay: NAMPT enzymatic reaction, NMN quantified by mass spectrometry; details: 33 nM NAMPT, 1 μM NAM, 100 μM PRPP, 30 minutes at room temperature, read-out: Biochem IC50
T1 construct: His; host or cells: E. coli
T1 sequence (P43490 whole entry): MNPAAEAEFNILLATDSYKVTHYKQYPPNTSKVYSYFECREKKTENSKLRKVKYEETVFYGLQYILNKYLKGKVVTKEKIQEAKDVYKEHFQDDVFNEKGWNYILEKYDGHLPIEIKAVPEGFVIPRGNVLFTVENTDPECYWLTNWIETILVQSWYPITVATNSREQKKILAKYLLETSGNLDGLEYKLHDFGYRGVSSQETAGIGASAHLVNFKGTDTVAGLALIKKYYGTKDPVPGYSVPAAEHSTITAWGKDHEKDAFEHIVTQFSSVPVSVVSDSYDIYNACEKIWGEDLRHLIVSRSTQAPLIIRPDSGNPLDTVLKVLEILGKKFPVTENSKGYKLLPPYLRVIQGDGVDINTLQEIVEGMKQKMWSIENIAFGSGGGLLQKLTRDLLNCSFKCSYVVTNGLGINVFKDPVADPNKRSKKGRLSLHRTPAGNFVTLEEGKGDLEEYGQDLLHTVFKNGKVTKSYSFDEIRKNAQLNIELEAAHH
Procedure, shortened: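 Reaction 30 min at room temperature with 1 μM NAM, 100 μM PRPP, 2.5 mM ATP (final), quenched with formic acid. NMN quantified by RapidFire electrospray MS, normalized to L-cystathionine; IC50 from percent inhibition versus DMSO.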

A2780 cells = experiment: In-vitro cell proliferation assay (SRB, 72 hours); type: cell-based; details: Homo sapiens, sulforhodamine B (SRB) assay
Procedure, shortened: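 Background from media-only plate subtracted; inhibition relative to DMSO-treated cells, value derived by interpolation between two concentrations.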

## O=C(NCCCCC1CCN(C(=O)c2cnc(C(F)(F)F)nc2)CC1)c1cc2ccncc2s1 [N-[4-(1-{[2-(trifluoromethyl)pyrimidin-5-yl]carbonyl}piperidin-4-yl)butyl]thieno[2,3-c]pyridine-2-carboxamide]
[1]; 2.5 mM ATP
  IC50: 158 nM
A2780 cells
  IC50: 100 to 1000 nM

## CCOc1ccccc1C(=O)N1CCC(CCCCNC(=O)c2cc3ccncc3s2)CC1 [N-(4-{1-[(2-ethoxyphenyl)carbonyl]piperidin-4-yl}butyl)thieno[2,3-c]pyridine-2-carboxamide]
[1]; 2.5 mM ATP
  IC50: 4 nM
A2780 cells
  IC50: 0.6 nM

## O=C(NCCCCC1CCN(C(=O)c2cc3cnccc3[nH]2)CC1)c1cc2cnccc2[nH]1 [N-{4-[1-({1H-pyrrolo[3,2-c]pyridin-2-yl}carbonyl)piperidin-4-yl]butyl}-1H-pyrrolo[3,2-c]pyridine-2-carboxamide]
[1]; 2.5 mM ATP
  IC50: 20.9 nM
A2780 cells
  IC50: 11.3 nM

## Cc1cccc(C(=O)N2CCC(CCCCNC(=O)c3cc4cnccc4[nH]3)CC2)c1F [N-(4-{1-[(2-fluoro-3-methylphenyl)carbonyl]piperidin-4-yl}butyl)-1H-pyrrolo[3,2-c]pyridine-2-carboxamide]
[1]; 2.5 mM ATP
  IC50: 47.5 nM
A2780 cells
  IC50: 6.9 nM

## O=C(NCCCCC1CCN(C(=O)c2ccccc2)CC1)c1cc2cnccc2[nH]1 [N-[4-(1-benzoylpiperidin-4-yl)butyl]-1H-pyrrolo[3,2-c]pyridine-2-carboxamide]
[1]; 2.5 mM ATP
  IC50: 8.1 nM
A2780 cells
  IC50: 1.4 nM

## CC(C)S(=O)(=O)N1CCC(CCCCNC(=O)c2cc3cnccc3[nH]2)CC1 [N-{4-[1-(propane-2-sulfonyl)piperidin-4-yl]butyl}-1H-pyrrolo[3,2-c]pyridine-2-carboxamide]
[1]; 2.5 mM ATP
  IC50: 30.6 nM
A2780 cells
  IC50: 23 nM

## O=C(NCCCCC1CCN(C(=O)c2cccc(Cl)c2)CC1)c1ccc2nccn2c1 [N-(4-{1-[(3-chlorophenyl)carbonyl]piperidin-4-yl}butyl)imidazo[1,2-a]pyridine-6-carboxamide]
[1]; 2.5 mM ATP
  IC50: 17.1 nM
A2780 cells
  IC50: 22.3 nM

## Cn1c(C(=O)N2CCC(CCCCNC(=O)c3cc4cnccc4[nH]3)CC2)cc2ccccc21 [N-(4-{1-[(1-methyl-1H-indol-2-yl)carbonyl]piperidin-4-yl}butyl)-1H-pyrrolo[3,2-c]pyridine-2-carboxamide]
[1]; 2.5 mM ATP
  IC50: 134 nM
A2780 cells
  IC50: 23.8 nM

## Cn1cc(CC(=O)N2CCC(CCCCNC(=O)c3cc4cnccc4[nH]3)CC2)c2ccccc21 [N-(4-{1-[2-(1-methyl-1H-indol-3-yl)acetyl]piperidin-4-yl}butyl)-1H-pyrrolo[3,2-c]pyridine-2-carboxamide]
[1]; 2.5 mM ATP
  IC50: 9.1 nM
A2780 cells
  IC50: 11.2 nM

## O=C(NCCCCC1CCN(C(=O)c2cccc(Cl)c2Cl)CC1)c1cc2ccncc2s1 [N-(4-{1-[(2,3-dichlorophenyl)carbonyl]piperidin-4-yl}butyl)thieno[2,3-c]pyridine-2-carboxamide]
[1]; 2.5 mM ATP
  IC50: 20.1 nM
A2780 cells
  IC50: 6.7 nM

## O=C(NCCCCC1CCN(C(=O)C2CCCCC2)CC1)c1ccc2nccn2c1 [N-[4-(1-cyclohexanecarbonylpiperidin-4-yl)butyl]imidazo[1,2-a]pyridine-6-carboxamide]
[1]; 2.5 mM ATP
  IC50: 18.1 nM
A2780 cells
  IC50: 0.9 nM

## COc1ccc(C(=O)N2CCC(CCCCNC(=O)c3cc4cnccc4[nH]3)CC2)cc1F [N-(4-{1-[(3-fluoro-4-methoxyphenyl)carbonyl]piperidin-4-yl}butyl)-1H-pyrrolo[3,2-c]pyridine-2-carboxamide]
[1]; 2.5 mM ATP
  IC50: 63.1 nM
A2780 cells
  IC50: 21 nM

## O=C(NCCCCC1CCN(C(=O)c2ccc(Cl)cc2Cl)CC1)c1cc2cnccc2[nH]1 [N-(4-{1-[(2,4-dichlorophenyl)carbonyl]piperidin-4-yl}butyl)-1H-pyrrolo[3,2-c]pyridine-2-carboxamide]
[1]; 2.5 mM ATP
  IC50: 70 nM
A2780 cells
  IC50: 12 nM

## CC(C)Oc1ccc(C(=O)N2CCC(CCCCNC(=O)c3ccc4nccn4c3)CC2)cc1 [N-[4-(1-{[4-(propan-2-yloxy)phenyl]carbonyl}piperidin-4-yl)butyl]imidazo[1,2-a]pyridine-6-carboxamide]
[1]; 2.5 mM ATP
  IC50: 55.2 nM
A2780 cells
  IC50: 20.9 nM

## O=C(NCCCCC1CCN(C(=O)c2ccc(C(F)(F)F)cn2)CC1)c1cc2ccncc2s1 [N-[4-(1-{[5-(trifluoromethyl)pyridin-2-yl]carbonyl}piperidin-4-yl)butyl]thieno[2,3-c]pyridine-2-carboxamide]
[1]; 2.5 mM ATP
  IC50: 91.8 nM
A2780 cells
  IC50: 100 to 1000 nM

## O=C(NCCCCC1CCN(C(=O)c2ccc(-n3cccn3)cc2)CC1)c1cc2cnccc2[nH]1 [N-[4-(1-{[4-(1H-pyrazol-1-yl)phenyl]carbonyl}piperidin-4-yl)butyl]-1H-pyrrolo[3,2-c]pyridine-2-carboxamide]
[1]; 2.5 mM ATP
  IC50: 50.7 nM
A2780 cells
  IC50: 13.6 nM

## O=C(NCCCCC1CCN(C(=O)c2ccc(N3CCOCC3)nc2)CC1)c1cc2ccncc2s1 [N-[4-(1-{[6-(morpholin-4-yl)pyridin-3-yl]carbonyl}piperidin-4-yl)butyl]thieno[2,3-c]pyridine-2-carboxamide]
[1]; 2.5 mM ATP
  IC50: 30.1 nM
A2780 cells
  IC50: 13.1 nM

## O=C(NCCCCC1CCN(C(=O)c2cc3ccccc3s2)CC1)c1cc2cnccc2[nH]1 [N-(4-{1-[(1-benzothiophen-2-yl)carbonyl]piperidin-4-yl}butyl)-1H-pyrrolo[3,2-c]pyridine-2-carboxamide]
[1]; 2.5 mM ATP
  IC50: 124 nM
A2780 cells
  IC50: 69.9 nM

## Cn1cc(CC(=O)N2CCC(CCCCNC(=O)c3cc4ccncc4s3)CC2)c2ccccc21 [N-(4-{1-[2-(1-methyl-1H-indol-3-yl)acetyl]piperidin-4-yl}butyl)thieno[2,3-c]pyridine-2-carboxamide]
[1]; 2.5 mM ATP
  IC50: 11.6 nM
A2780 cells
  IC50: 24 nM

## O=C(NCCCCC1CCN(C(=O)c2cc3ccccc3[nH]2)CC1)c1cc2ccncc2s1 [N-(4-{1-[(1H-indol-2-yl)carbonyl]piperidin-4-yl}butyl)thieno[2,3-c]pyridine-2-carboxamide]
[1]; 2.5 mM ATP
  IC50: 33.5 nM
A2780 cells
  IC50: 100 to 1000 nM

## CC(C)Oc1ccc(C(=O)N2CCC(CCCCNC(=O)c3cc4cnccc4[nH]3)CC2)cc1 [N-[4-(1-{[4-(propan-2-yloxy)phenyl]carbonyl}piperidin-4-yl)butyl]-1H-pyrrolo[3,2-c]pyridine-2-carboxamide]
[1]; 2.5 mM ATP
  IC50: 93.7 nM
A2780 cells
  IC50: 13.1 nM

## O=C(NCCCCC1CCN(C(=O)c2cnccc2C(F)(F)F)CC1)c1cc2ccncc2s1 [N-[4-(1-{[4-(trifluoromethyl)pyridin-3-yl]carbonyl}piperidin-4-yl)butyl]thieno[2,3-c]pyridine-2-carboxamide]
[1]; 2.5 mM ATP
  IC50: 9.9 nM
A2780 cells
  IC50: 6.9 nM

## O=C(NCCCCC1CCN(S(=O)(=O)c2ccc(F)c(F)c2)CC1)c1cc2cnccc2[nH]1 [N-(4-{1-[(3,4-difluorobenzene)sulfonyl]piperidin-4-yl}butyl)-1H-pyrrolo[3,2-c]pyridine-2-carboxamide]
[1]; 2.5 mM ATP
  IC50: 34.6 nM
A2780 cells
  IC50: 22.8 nM

## O=C(NCCCCC1CCN(C(=O)c2ccccc2)CC1)c1cc2ccncc2s1 [N-[4-(1-benzoylpiperidin-4-yl)butyl]thieno[2,3-c]pyridine-2-carboxamide]
[1]; […] ATP
  IC50: 6.3 nM
A2780 cells
  IC50: 1.2 nM

## O=C(NCCCCC1CCN(S(=O)(=O)c2cc(F)ccc2F)CC1)c1cc2cnccc2[nH]1 [N-(4-{1-[(2,5-difluorobenzene)sulfonyl]piperidin-4-yl}butyl)-1H-pyrrolo[3,2-c]pyridine-2-carboxamide]
[1]; 2.5 mM ATP
  IC50: 11.1 nM
A2780 cells
  IC50: 5.8 nM

## CCOc1cccc(C(=O)N2CCC(CCCCNC(=O)c3cc4cnccc4[nH]3)CC2)c1 [N-(4-{1-[(3-ethoxyphenyl)carbonyl]piperidin-4-yl}butyl)-1H-pyrrolo[3,2-c]pyridine-2-carboxamide]
[1]; 2.5 mM ATP
  IC50: 85.1 nM
A2780 cells
  IC50: 11 nM

## Cn1cnc(C(=O)N2CCC(CCCCNC(=O)c3cc4cnccc4[nH]3)CC2)c1 [N-(4-{1-[(1-methyl-1H-imidazol-4-yl)carbonyl]piperidin-4-yl}butyl)-1H-pyrrolo[3,2-c]pyridine-2-carboxamide]
[1]; 2.5 mM ATP
  IC50: 93.7 nM
A2780 cells
  IC50: 55 nM

## O=C(NCCCCC1CCN(C(=O)c2ccccc2)CC1)c1ccc2nccn2c1 [N-[4-(1-benzoylpiperidin-4-yl)butyl]imidazo[1,2-a]pyridine-6-carboxamide]
[1]; 2.5 mM ATP
  IC50: 5.5 nM
A2780 cells
  IC50: 5.7 nM

## COc1ccc(OC)c(C(=O)N2CCC(CCCCNC(=O)c3ccc4nccn4c3)CC2)c1 [N-(4-{1-[(2,5-dimethoxyphenyl)carbonyl]piperidin-4-yl}butyl)imidazo[1,2-a]pyridine-6-carboxamide]
[1]; 2.5 mM ATP
  IC50: 42.9 nM
A2780 cells
  IC50: 1.9 nM

## O=C(NCCCCC1CCN(C(=O)c2ccncc2)CC1)c1cc2cnccc2[nH]1 [N-(4-{1-[(pyridin-4-yl)carbonyl]piperidin-4-yl}butyl)-1H-pyrrolo[3,2-c]pyridine-2-carboxamide]
[1]; 2.5 mM ATP
  IC50: 9.7 nM
A2780 cells
  IC50: 4.4 nM

## O=C(NCCCCC1CCN(C(=O)c2ccc3cc[nH]c3c2)CC1)c1ccc2nccn2c1 [N-(4-{1-[(1H-indol-6-yl)carbonyl]piperidin-4-yl}butyl)imidazo[1,2-a]pyridine-6-carboxamide]
[1]; 2.5 mM ATP
  IC50: 29.8 nM
A2780 cells
  IC50: 14.9 nM

## O=C(NCCCCC1CCN(C(=O)c2ccc3c(c2)OCO3)CC1)c1cc2cnccc2[nH]1 [N-(4-{1-[(2H-1,3-benzodioxol-5-yl)carbonyl]piperidin-4-yl}butyl)-1H-pyrrolo[3,2-c]pyridine-2-carboxamide]
[1]; 2.5 mM ATP
  IC50: 78.3 nM
A2780 cells
  IC50: 14 nM

## O=C(NCCCCC1CCN(C(=O)c2cc3cnccc3[nH]2)CC1)c1cc2ccncc2s1 [N-{4-[1-({1H-pyrrolo[3,2-c]pyridin-2-yl}carbonyl)piperidin-4-yl]butyl}thieno[2,3-c]pyridine-2-carboxamide]
[1]; 2.5 mM ATP
  IC50: 6.9 nM
A2780 cells
  IC50: 13.7 nM

## COc1cccc(OC)c1C(=O)N1CCC(CCCCNC(=O)c2ccc3nccn3c2)CC1 [N-(4-{1-[(2,6-dimethoxyphenyl)carbonyl]piperidin-4-yl}butyl)imidazo[1,2-a]pyridine-6-carboxamide]
[1]; 2.5 mM ATP
  IC50: 28.6 nM
A2780 cells
  IC50: 1 nM
